Test results from US7417045B2, “Heterocyclic substituted pyridine or phenyl compounds with CXCR3 antagonist activity” (Schering Corporation, priority 2005, dated 2008).

target: T1, human CXCR3 (N-delta 4) (Homo sapiens, UniProt P49682); assay: Human CXCR3 (N-delta 4) Scintillation Proximity Assay (SPA), [125I] IP-10 binding; conditions: IC50 rating; [125I] IP-10 displacement, Ba/F3-hCXCR3 (N-delta 4) membranes
T1 construct: CD8 leader (N); Flag tag; expressed in transfected cells; membranes
T1 sequence (P49682 5-368 limits assumed): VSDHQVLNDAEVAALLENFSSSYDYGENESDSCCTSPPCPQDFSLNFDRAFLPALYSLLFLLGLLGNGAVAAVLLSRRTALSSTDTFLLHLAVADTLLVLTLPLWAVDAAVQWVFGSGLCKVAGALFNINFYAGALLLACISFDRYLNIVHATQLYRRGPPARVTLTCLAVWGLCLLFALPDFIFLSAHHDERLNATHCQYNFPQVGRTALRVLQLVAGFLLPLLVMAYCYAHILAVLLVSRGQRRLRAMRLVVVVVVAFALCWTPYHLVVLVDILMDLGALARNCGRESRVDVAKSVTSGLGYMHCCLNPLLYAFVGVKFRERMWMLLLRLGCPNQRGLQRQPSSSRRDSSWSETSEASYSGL
Text: The inventive compounds can readily be evaluated to determine activity at The CXCR3 receptors by known methods, such as, for example, Development of Human CXCR3 (N-delta 4) Binding Assay.
Cloning and Expression of Human CXCR3 (N-Delta 4):
The DNA encoding human CXCR3 was cloned by PCR using human genomic DNA (Promega, Madison, Wis.) as a template. The PCR primers were designed based on the published sequence of human orphan receptor GPR9 (1) with incorporated restriction sites, a Kozak consensus sequence, CD8 leader and Flag tag. The PCR product was subcloned into the mammalian expression vector pME18Sneo, a derivative of the SR-alpha expression vector (designated as pME18Sneo-hCXCR3 (N-delta 4).
IL-3-dependent mouse pro-B cells Ba/F3 were transfected by electroporation in 0.4 ml Dulbecco's PBS containing 4×10^6 cells with 20 μg of pME18Sneo-hCXCR3 (N-delta 4) plasmid DNA. Cells were pulsed at 400 Volts, 100 OHMs, 960 μFd. The transfected cells were under selection with 1 mg/ml G418 (Life Technologies, Gaithersburg, Md.). G418-resistant Ba/F3 clones were screened for CXCR3 expression by specific binding of [^125I] IP-10 (NEN Life Science Products, Boston, Mass.).
Preparation of Ba/F3-hCXCR3 (N-Delta 4) Membranes
Ba/F3 cells expressing human CXCR3 (N-delta 4) were pelleted and resuspended in the lysis buffer containing 10 mM HEPES, pH 7.5 and Complete® protease inhibitors (1 tablet per 100 ml) (Boehringer Mannheim, Indianapolis, Ind.) at a cell density of 20×10^6 cells per ml. After 5 minutes incubation on ice, cells were transferred to 4639 cell disruption bomb (Parr Instrument, Moline, Ill.) and applied with 1,500 psi of nitrogen for 30 minutes on ice. Large cellular debris was removed by centrifugation at 1,000× g. Cell membrane in the supernatant was sedimented at 100,000× g. The membrane was resuspended in the lysis buffer supplemented with 10% sucrose and stored at −80° C. Total protein concentration of the membrane was determined by BCA method from Pierce (Rockford, Ill.).
Human CXCR3 (N-Delta 4) Scintillation Proximity Assay (SPA)
For each assay point, 2 μg of membrane was preincubated for 1 hr with 300 μg wheat germ agglutinin (WGA) coated SPA beads (Amersham, Arlington Heights, Ill.) in the binding buffer (50 mM HEPES, 1 mM CaCl2, 5 mM MgCl2, 125 mM NaCl, 0.002% NaN3, 1.0% BSA) at room temperature. The beads were spun down, washed once, resuspended in the binding buffer and transferred to a 96-well Isoplate (Wallac, Gaithersburg, Md.). 25 pM of [^125I] IP-10 with tested compounds in a series of titration were added to start the reaction. After 3 hr reaction at room temperature, the amount of [^125I] IP-10 bound to the SPA beads was determined with a Wallac 1450 Microbeta counter.

IC50 [nM] | SMILES
> 100 | CC[C@H]1CN(c2ncc(-c3nccn3C(c3ccccc3)(c3ccccc3)c3ccccc3)cc2Cl)CCN1C1CCN(Cc2ccc(Cl)cc2F)CC1 [Compound 145]
> 100 | CC[C@H]1CN(c2ncc(C3=NCCN3C(=O)c3ccc(C#N)cc3)cc2Cl)CCN1C1CCN(C(=O)c2ccc(C#N)cc2)CC1 [Compound 161]
25 to 100 | CC[C@H]1CN(c2ncc(-c3nnc(C)o3)cc2Cl)CCN1C1CCN(C(=O)c2ccc(Br)cc2)CC1 [Compound 120]
< 25 | CC[C@H]1CN(c2ncc(C3=NCCN3)cc2Cl)CCN1C1CCN(Cc2ccc(F)cc2)CC1 [Compound 11]
< 25 | CC[C@H]1CN(c2ncc(-c3ncc[nH]3)cc2Cl)CCN1C1CCN(Cc2ccc(Cl)cc2-c2ncc[nH]2)CC1 [Compound 28]
> 100 | CC[C@H]1CN(c2ncc(C3=NCCN3)cc2Cl)CCN1C1CCN(Cc2ccc(C3CC3C(C)(C)O)cc2)CC1 (stereo partly drawn) [Compound 152]
< 25 | CC[C@H]1CN(c2ncc(-c3nnc(C)o3)cc2Cl)CCN1C1CCN(Cc2ccc(Cl)cc2F)CC1 [Compound 70]
< 25 | CC[C@H]1CN(c2ncc(-c3ncc[nH]3)cc2Cl)CCN1C1CCN(Cc2ccc(-n3cncn3)cc2)CC1 [Compound 76]
< 25 | CCOC(=O)C1CC1c1ccc(CN2CCC(N3CCN(c4ncc(C5=NCCN5)cc4Cl)C[C@@H]3CC)CC2)cc1 (stereo partly drawn) [Compound 75]
25 to 100 | C[C@H]1CN(c2ncc(-c3nc4ccccc4[nH]3)cc2Cl)CCN1C1CCN(Cc2ccc(Cl)cc2)CC1 [Compound 110]
25 to 100 | CC[C@H]1CN(c2ncc(-c3ncc[nH]3)cc2Cl)CCN1C1CCN(C(=O)c2ccc(-n3cccn3)cc2)CC1 [Compound 102]
< 25 | CC[C@H]1CN(c2ncc(-c3nnc(CO)o3)cc2Cl)CCN1C1CCN(C(CO)c2ccc(Cl)cc2)CC1 (stereo partly drawn) [Compound 39]
< 25 | CC[C@H]1CN(c2ncc(-c3n[nH]c(=O)[nH]3)cc2Cl)CCN1C1CCN(Cc2ccc(Cl)cc2F)CC1 [Compound 88]
< 25 | CC[C@H]1CN(c2ncc(-c3ncc[nH]3)cc2Cl)CCN1C1CCN(Cc2ccc(Cl)cc2-c2nnn[nH]2)CC1 [Compound 52]
< 25 | CC[C@H]1CN(c2ncc(-c3ncc[nH]3)cc2Cl)CCN1C1CCN(Cc2ccc(C#CCN(C)C)cc2)CC1 [Compound 100]
< 25 | CC[C@H]1CN(c2ncc(-c3ncc[nH]3)cc2Cl)CCN1C1CCN(Cc2ccc(C#CC(C)(C)O)cc2)CC1 [Compound 23]
< 25 | CC[C@H]1CN(c2ncc(-c3ncc[nH]3)cc2Cl)CCN1C1CCN(Cc2ccc(Cl)cc2C(=O)O)CC1 [Compound 43]
< 25 | CC[C@H]1CN(c2ncc(C3=NCCN3)cc2Cl)CCN1C1CCN([C@@H](CO)c2ccc(Cl)cc2)CC1 [Compound 7]
< 25 | CC[C@H]1CN(c2ncc(-c3ncc[nH]3)cc2Cl)CCN1C1CCN([C@H](CO)c2ccc(Cl)cc2)CC1 [Compound 90]
< 25 | CC[C@H]1CN(c2ncc(-c3ncc[nH]3)cc2Cl)CCN1C1CCN([C@@H](C(=O)NCC(F)(F)F)c2ccc(Cl)cc2)CC1 [Compound 99]
< 25 | CC[C@H]1CN(c2ncc(-c3ncc[nH]3)cc2Cl)CCN1C1CCN(C(=O)c2ccc(Cl)nc2N)CC1 [Compound 46]
< 25 | CC[C@H]1CN(c2ncc(-c3ncc[nH]3)cc2Cl)CCN1C1CCN([C@@H](C(=O)NC2CC2)c2ccc(Cl)cc2)CC1 [Compound 36]
< 25 | CC[C@H]1CN(c2ncc(-c3ncc[nH]3)cc2Cl)CCN1C1CCN(Cc2ccc(-c3csnn3)cc2)CC1 [Compound 22]
> 100 | CC[C@H]1CN(c2ncc(-c3ncc[nH]3)cc2Cl)CCN1C1CCN(C(=O)c2ccc(-n3ccc(C(F)(F)F)n3)cc2)CC1 [Compound 157]

IC50 [nM] | SMILES
> 100 | CC[C@H]1CN(c2ncc(-c3ncc[nH]3)cc2Cl)CCN1C1CCN(C(=O)c2ccc(C#CC(C)(C)NC(=O)OC(C)(C)C)cc2)CC1 [Compound 142]
< 25 | CC[C@H]1CN(c2ncc(-c3ncc[nH]3)cc2Cl)CCN1C1CCN(Cc2ccc(-n3cccn3)cc2)CC1 [Compound 19]
< 25 | CC[C@H]1CN(c2ncc(-c3ncc[nH]3)cc2Cl)CCN1C1CCN(Cc2ccc(C#N)cc2)CC1 [Compound 17]
> 100 | CC[C@H]1CN(c2ncc(-c3noc(=O)[nH]3)cc2Cl)CCN1C1CCN(Cc2ccc(Cl)cc2F)CC1 [Compound 160]
> 100 | CC[C@H]1CN(c2ncc(-c3ncc[nH]3)cc2Cl)CCN1C1CCN([C@H](C(=O)NC)c2ccc(Cl)cc2)CC1 [Compound 166]
< 25 | CC[C@H]1CN(c2ncc(C3=NC(C)CN3)cc2Cl)CCN1C1CCN(C(=O)c2ccc(Cl)cc2)CC1 (stereo partly drawn) [Compound 72]
< 25 | CC[C@H]1CN(c2ncc(-c3ncc[nH]3)cc2Cl)CCN1C1CCN([C@@H](CO)c2ccc(Cl)cc2)CC1 [Compound 10]
< 25 | CC[C@H]1CN(c2ncc(-c3ncc[nH]3)cc2Cl)CCN1C1CCN(C(=O)c2ccc(C#N)cc2)CC1 [Compound 74]
> 100 | CC[C@H]1CN(c2ncc(-c3nccn3CCC(=O)c3ccc(Cl)cc3)cc2Cl)CCN1C1CCN(CCC(=O)c2ccc(Cl)cc2)CC1 [Compound 165]
< 25 | CC[C@H]1CN(c2ncc(C3=NCCN3)cc2Cl)CCN1C1CCN(Cc2ccc(OC(F)(F)F)cc2)CC1 [Compound 12]
< 25 | C[C@@H]1CN(C2CCN(Cc3ccc(Cl)cc3F)CC2)[C@@H](C)CN1c1ncc(-c2ncc[nH]2)cc1Cl [Compound 79]
< 25 | CC[C@H]1CN(c2ncc(-c3ncc[nH]3)cc2Cl)CCN1C1CCN(Cc2ccc(Cl)cc2-c2n[nH]c(=O)o2)CC1 [Compound 57]
> 100 | CC[C@H]1CN(c2ncc(-c3ncc[nH]3)cc2Cl)CCN1C1CCN(C(=O)c2ccc(-n3cncn3)cc2)CC1 [Compound 135]
< 25 | CC[C@H]1CN(c2ncc(-c3ncc[nH]3)cc2Cl)CCN1C1CCN(Cc2ccc(C#CC(C)(C)C)cc2)CC1 [Compound 25]
> 100 | CC[C@H]1CN(c2ncc(-c3ncc[nH]3)cc2Cl)CCN1C1(C)CCN(Cc2ccc(Cl)cc2C(=O)OC)CC1 [Compound 151]
< 25 | CC[C@H]1CN(c2ncc(-c3ncc[nH]3)cc2Cl)CCN1C1CCN(Cc2ccc(Cl)cc2/C(N)=N/O)CC1 [Compound 6]
< 25 | CC[C@H]1CN(c2ncc(C3=NCCN3)cc2Cl)CCN1C1CCN(C(=O)c2ccc(Cl)cc2I)CC1 [Compound 85]
> 100 | CC[C@H]1CN(c2ncc(-c3ncc[nH]3)cc2Cl)CCN1C1CCN(C(=O)c2ccc(C#CC(C)(C)NS(C)(=O)=O)cc2)CC1 [Compound 171]
< 25 | CC[C@H]1CN(c2ccc(-c3ncc[nH]3)cc2Br)CCN1C1CCN(Cc2ccc(Cl)cc2F)CC1 [Compound 20]
> 100 | CC[C@H]1CN(c2ncc(-c3ncc[nH]3)cc2Cl)CCN1C1CCN([C@H](C(=O)N(C)C)c2ccc(Cl)cc2)CC1 [Compound 150]
25 to 100 | CC[C@H]1CN(c2ncc(-c3nccn3C)cc2Cl)CCN1C1CCN(Cc2ccc(Cl)cc2F)CC1 [Compound 122]
< 25 | CCNc1nnc(-c2cnc(N3CCN(C4CCN(C(=O)c5ccc(Cl)nc5N)CC4)[C@@H](CC)C3)c(Cl)c2)o1 [Compound 73]
> 100 | CC[C@H]1CN(c2ncc(C3=NCCN3)cc2Cl)CCN1C1CCN(Cc2ccc(C3CC3CO)cc2)CC1 (stereo partly drawn) [Compound 153]
25 to 100 | CC[C@H]1CN(c2ncc(-c3nnco3)cc2Cl)CCN1C1CCN(C(=O)c2ccc(Br)cc2)CC1 [Compound 129]
